In patent publication US20240391948A1, “NOVEL COMPOUND THAT INHIBITS TNF-ALPHA GENERATION AND INFLAMMASOME ACTIVITY AND PREPARATION METHOD THEREFOR” (SHAPERON INC., priority 2021, published 2024):

Tests used:
Format in all cases: cell-based
[1] = system: J774A.1 (Mouse BALB/c monocyte macrophage cell line) cells; test: LPS-induced TNF-α secretion inhibition in J774A.1 cells; conditions: J774.A1, 1 μM compound, graded compared to taurodeoxycholic acid (positive control), read-out: TNF-α production inhibition grade
In short: (§1)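 Mouse J774A.1 macrophages treated with 1 μM compound; TNF-α secretion measured after LPS stimulation and IL-1β secretion after LPS+ATP stimulation. Suppression graded against taurodeoxycholic acid: A over 100%, B 50–100%, C 20–50%, D under 20%.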

[2] = system: J774A.1 (Mouse BALB/c monocyte macrophage cell line) cells; test: LPS+ATP-induced IL-1β secretion inhibition in J774A.1 cells; conditions: J774.A1, 1 μM compound, graded compared to taurodeoxycholic acid (positive control), read-out: IL-1β production inhibition grade
In short: as §1

[3] = system: U937 cells (human monocytic cell line); test: Pam2CSK4-induced TNF-α secretion inhibition in PMA-differentiated U937 cells; conditions: U-937, U937 cells differentiated with PMA, read-out: TNF-α production inhibition grade (IC50)
In short: (§2)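 U937 cells were PMA-differentiated into macrophages and treated with compound before inflammatory stimulus. TNF-α secretion was induced with Pam2CSK4 and IL-1β secretion with BzATP. IC50 (μM) values are graded A-D, with separate cut-offs per cytokine.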

[4] = system: U937 cells (human monocytic cell line); test: BzATP-induced IL-1β secretion inhibition in PMA-differentiated U937 cells; conditions: U-937, U937 cells differentiated with PMA, read-out: IL-1β production inhibition grade (IC50)
In short: as §2

Row | SMILES | inhibition at 1 µM [1] [%] | inhibition at 1 µM [2] [%] | IC50 [3] [nM] | IC50 [4] [nM]
1 | CC(C)C[C@@H](CS(=O)(=O)O)NC(=O)CC[C@@H](C)[C@H]1CC[C@H]2[C@@H]3CC[C@@H]4C[C@H](O)CC[C@]4(C)[C@H]3C[C@H](O)[C@]12C [NC10045] | < 20 | 50 to 100 | < 500 | 50 to 100
2 | C[C@H](CCC(=O)N[C@H](Cc1ccccc1)CS(=O)(=O)O)[C@H]1CC[C@H]2[C@@H]3CC[C@@H]4C[C@H](O)CC[C@]4(C)[C@H]3C[C@H](O)[C@]12C [NC10031] | < 20 | < 20 | ≥ 2000 | 50 to 100
3 | C[C@H](CCC(=O)N1CCC(S(=O)(=O)O)CC1)[C@H]1CC[C@H]2[C@@H]3CC[C@@H]4CC(=O)CC[C@]4(C)[C@H]3CC[C@]12C [NC30011] | < 20 | < 20 | 500 to 1000 | ≥ 200
4 | C[C@H](CCC(=O)N1CCC[C@H]1CS(=O)(=O)O)[C@H]1CC[C@H]2[C@@H]3CC[C@@H]4C[C@H](O)CC[C@]4(C)[C@H]3CC[C@]12C [NC10077] | < 20 | > 100 | < 500 | < 50
5 | C[C@H](CCC(=O)N1CC(S(=O)(=O)O)C1)[C@H]1CC[C@H]2[C@@H]3CC[C@@H]4C[C@H](O)CC[C@]4(C)[C@H]3C[C@H](O)[C@]12C [NC10028] | < 20 | > 100 | ≥ 2000 | 50 to 100
6 | C[C@H](CCC(=O)N(CCS(=O)(=O)O)Cc1ccccc1)[C@H]1CC[C@H]2[C@@H]3CC[C@@H]4C[C@H](O)CC[C@]4(C)[C@H]3C[C@H](O)[C@]12C [NC10022] | 20 to 50 | 50 to 100 | 500 to 1000 | 100 to 200
7 | C[C@H](CCC(=O)N[C@@H](CS(=O)(=O)O)c1ccccc1)[C@H]1CC[C@H]2[C@@H]3CC[C@@H]4C[C@H](O)CC[C@]4(C)[C@H]3C[C@H](O)[C@]12C [NC10035] | < 20 | 50 to 100 | 500 to 1000 | ≥ 200
8 | C[C@H](CCC(=O)N(CCS(=O)(=O)O)C1CCCCC1)[C@H]1CC[C@H]2[C@@H]3CC[C@@H]4C[C@H](O)CC[C@]4(C)[C@H]3C[C@H](O)[C@]12C [NC10004] | 20 to 50 | 50 to 100 | ≥ 2000 | ≥ 200
9 | C[C@H](CCC(=O)N1CCC(S(=O)(=O)O)CC1)[C@H]1CC[C@H]2[C@@H]3[C@H](O)C[C@@H]4C[C@H](O)CC[C@]4(C)[C@H]3C[C@H](O)[C@]12C [NC20011] | < 20 | 50 to 100 | ≥ 2000 | 50 to 100
10 | C[C@H](CCC(=O)NC1(CS(=O)(=O)O)CC1)[C@H]1CC[C@H]2[C@@H]3CC[C@@H]4C[C@H](O)CC[C@]4(C)[C@H]3C[C@H](O)[C@]12C [NC10047] | < 20 | 20 to 50 | 500 to 1000 | 100 to 200
11 | CC[C@H]1[C@@H](O)[C@@H]2[C@H](CC[C@]3(C)[C@@H]([C@H](C)CCC(=O)N(CCS(=O)(=O)O)Cc4cccnc4)CC[C@@H]23)[C@@]2(C)CC[C@@H](O)C[C@@H]12 [NC40036] | < 20 | 50 to 100 | 1000 to 2000 | 50 to 100
12 | C[C@H](CCC(=O)NC[C@@H](C)S(=O)(=O)O)[C@H]1CC[C@H]2[C@@H]3CC[C@@H]4C[C@H](O)CC[C@]4(C)[C@H]3C[C@H](O)[C@]12C [NC10039] | 20 to 50 | 50 to 100 | 500 to 1000 | 50 to 100
13 | C[C@H](CCC(=O)N1CCC[C@H](S(=O)(=O)O)C1)[C@H]1CC[C@H]2[C@@H]3CC[C@@H]4CC(=O)CC[C@]4(C)[C@H]3CC[C@]12C [NC30009] | 50 to 100 | 20 to 50 | 500 to 1000 | ≥ 200
14 | CC[C@H]1[C@@H](O)[C@@H]2[C@H](CC[C@]3(C)[C@@H]([C@H](C)CCC(=O)NC[C@@H](C)S(=O)(=O)O)CC[C@@H]23)[C@@]2(C)CC[C@@H](O)C[C@@H]12 [NC40023] | < 20 | < 20 | 500 to 1000 | ≥ 200
15 | C[C@H](CCC(=O)N1CCN(CCS(=O)(=O)O)CC1)[C@H]1CC[C@H]2[C@@H]3CC[C@@H]4C[C@H](O)CC[C@]4(C)[C@H]3C[C@H](O)[C@]12C [NC10010] | > 100 | > 100 | < 500 | < 50
16 | CC[C@H]1[C@@H](O)[C@@H]2[C@H](C[C@H](O)[C@]3(C)[C@@H]([C@H](C)CCC(=O)N4CC(S(=O)(=O)O)C4)CC[C@@H]23)[C@@]2(C)CC[C@@H](O)C[C@@H]12 [NC50012] | < 20 | > 100 | 1000 to 2000 | < 50
17 | C[C@H](CCC(=O)N[C@@H](CS(=O)(=O)O)c1ccccc1)[C@H]1CC[C@H]2[C@@H]3[C@H](O)C[C@@H]4C[C@H](O)CC[C@]4(C)[C@H]3C[C@H](O)[C@]12C [NC20019] | < 20 | < 20 | 1000 to 2000 | 50 to 100
18 | C[C@H](CCC(=O)N[C@H](Cc1ccccc1)CS(=O)(=O)O)[C@H]1CC[C@H]2[C@@H]3CC[C@@H]4CC(=O)CC[C@]4(C)[C@H]3CC[C@]12C [NC30015] | < 20 | < 20 | < 500 | ≥ 200
19 | CC(C)[C@H](CS(=O)(=O)O)NC(=O)CC[C@@H](C)[C@H]1CC[C@H]2[C@@H]3CC[C@@H]4C[C@H](O)CC[C@]4(C)[C@H]3C[C@H](O)[C@]12C [NC10033] | < 20 | 50 to 100 | 500 to 1000 | 100 to 200
20 | CC(C)[C@@H](CS(=O)(=O)O)NC(=O)CC[C@@H](C)[C@H]1CC[C@H]2[C@@H]3CC[C@@H]4C[C@H](O)CC[C@]4(C)[C@H]3CC[C@]12C [NC10067] | < 20 | < 20 | 1000 to 2000 | ≥ 200
21 | C[C@H](CCC(=O)NCCN1CCOCC1)[C@H]1CC[C@H]2[C@@H]3CC[C@@H]4C[C@H](O)CC[C@]4(C)[C@H]3C[C@H](O)[C@]12C [NC10018] | 50 to 100 | 20 to 50 | ≥ 2000 | 50 to 100
22 | CC[C@H]1[C@@H](O)[C@@H]2[C@H](CC[C@]3(C)[C@@H]([C@H](C)CCC(=O)N[C@H](C)CS(=O)(=O)O)CC[C@@H]23)[C@@]2(C)CC[C@@H](O)C[C@@H]12 [NC40029] | < 20 | < 20 | 1000 to 2000 | ≥ 200
23 | C[C@H](CCC(=O)Nc1ccc(S(=O)(=O)O)cc1)[C@H]1CC[C@H]2[C@@H]3CC[C@@H]4C[C@H](O)CC[C@]4(C)[C@H]3C[C@H](O)[C@]12C [NC10003] | > 100 | > 100 | < 500 | < 50
24 | CC(C)N(CCS(=O)(=O)O)C(=O)CC[C@@H](C)[C@H]1CC[C@H]2[C@@H]3CC[C@@H]4C[C@H](O)CC[C@]4(C)[C@H]3CC[C@]12C [NC10058] | < 20 | > 100 | ≥ 2000 | < 50
25 | C[C@H](CCC(=O)N(C)CCS(=O)(=O)O)[C@H]1CC[C@H]2[C@@H]3CC[C@@H]4C[C@H](O)CC[C@]4(C)[C@H]3C[C@H](O)[C@]12C [NC10006] | < 20 | 50 to 100 | 500 to 1000 | ≥ 200
26 | C[C@H](CCC(=O)NC[C@H](C)S(=O)(=O)O)[C@H]1CC[C@H]2[C@@H]3CC[C@@H]4C[C@H](O)CC[C@]4(C)[C@H]3CC[C@]12C [NC10078] | < 20 | > 100 | < 500 | < 50
27 | C[C@H](CCC(=O)N1CC[C@@H](S(=O)(=O)O)C1)[C@H]1CC[C@H]2[C@@H]3CC[C@@H]4C[C@H](O)CC[C@]4(C)[C@H]3CC[C@]12C [NC10090] | < 20 | < 20 | 500 to 1000 | ≥ 200
28 | CC[C@H]1[C@@H](O)[C@@H]2[C@H](CC[C@]3(C)[C@@H]([C@H](C)CCC(=O)N[C@@H](C)CS(=O)(=O)O)CC[C@@H]23)[C@@]2(C)CC[C@@H](O)C[C@@H]12 [NC40028] | < 20 | 50 to 100 | 1000 to 2000 | 100 to 200
29 | CC(C)[C@H](CS(=O)(=O)O)NC(=O)CC[C@@H](C)[C@H]1CC[C@H]2[C@@H]3[C@H](O)C[C@@H]4C[C@H](O)CC[C@]4(C)[C@H]3C[C@H](O)[C@]12C [NC20017] | < 20 | 50 to 100 | < 500 | ≥ 200
